Positions count from the first letter of the chain named.
Tests used:
BLT2 = test system: BLT2; parameters: method as in PMID 18378794; settings: cited from earlier work
BLT2 R160^4.64A = biological target: T1, BLT2 R160^4.64A (Homo sapiens, UniProt Q9NPC1, R160A); test: Gi protein activation catalyzed by BLT2 mutant; format: biochemical
T1 construct: made in house
T1 sequence (Q9NPC1 1-358 R160A): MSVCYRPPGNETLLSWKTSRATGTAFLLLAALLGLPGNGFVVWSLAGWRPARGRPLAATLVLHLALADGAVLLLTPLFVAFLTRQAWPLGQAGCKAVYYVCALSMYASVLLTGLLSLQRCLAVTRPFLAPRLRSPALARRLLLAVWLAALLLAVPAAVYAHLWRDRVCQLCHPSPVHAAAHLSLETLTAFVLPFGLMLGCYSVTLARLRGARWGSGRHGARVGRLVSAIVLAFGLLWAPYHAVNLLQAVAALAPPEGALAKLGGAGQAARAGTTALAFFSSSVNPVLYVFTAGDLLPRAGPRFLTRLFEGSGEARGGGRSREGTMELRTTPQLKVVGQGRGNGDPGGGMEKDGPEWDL
Experimental: (§1) All mutations were introduced in the wild-type BLT2 receptor by PCR-mediated mutagenesis using the QuickChange multisite-directed mutagenesis kit (Stratagene) and the wild-type BLT2 construct as a template. Mutations were confirmed by nucleotide sequencing. […] Gαi2 and Gβ1γ2 were prepared as previously described. […] The data were normalized to the fluorescence maximum obtained in the presence of saturating concentrations in 12–HHT (10 μM).

BLT2 H177^ECL2A = biological target: T2, BLT2 H177^ECL2A (Homo sapiens, UniProt Q9NPC1, H177A); test: Gi protein activation catalyzed by BLT2 mutant; format: biochemical
T2 construct: made in house
T2 sequence (Q9NPC1 1-358 H177A): T1 sequence (Q9NPC1 1-358 R160A) with A160R, H177A
Experimental: as §1

BLT2 E185^5.42A = biological target: T3, BLT2 E185^5.42A (Homo sapiens, UniProt Q9NPC1, E185A); test: Gi protein activation catalyzed by BLT2 mutant; format: biochemical
T3 construct: made in house
T3 sequence (Q9NPC1 1-358 E185A): T1 sequence (Q9NPC1 1-358 R160A) with A160R, E185A
Experimental: as §1

BLT2 Q267^7.32A = biological target: T4, BLT2 Q267^7.32A (Homo sapiens, UniProt Q9NPC1, Q267A); test: Gi protein activation catalyzed by BLT2 mutant; format: biochemical
T4 construct: made in house
T4 sequence (Q9NPC1 1-358 Q267A): T1 sequence (Q9NPC1 1-358 R160A) with A160R, Q267A
Experimental: as §1

BLT2 R166^ECL2A = biological target: T5, BLT2 R166^ECL2A (Homo sapiens, UniProt Q9NPC1, R166A); test: Gi protein activation catalyzed by BLT2 mutant; format: biochemical
T5 construct: made in house
T5 sequence (Q9NPC1 1-358 R166A): T1 sequence (Q9NPC1 1-358 R160A) with A160R, R166A
Experimental: as §1

effect of the mutation on ligand binding (BLT2 R160^4.64A; R160^4.64A compared to wild-type, in words): no effect
EC50 (BLT2 R160^4.64A; construct R160^4.64A): 0.0205 µM
EC50 (BLT2 H177^ECL2A; construct H177^ECL2A): 0.0243 µM
effect of the mutation on ligand binding (BLT2 E185^5.42A; E185A compared to wild-type, in words): did not significantly affect
EC50 (BLT2 E185^5.42A; construct E185^5.42A): 0.0707 µM
effect of the mutation on ligand binding (BLT2 Q267^7.32A; Q267^7.32A compared to wild-type, in words): no significant change in ligand binding
EC50 (BLT2 Q267^7.32A; construct Q267^7.32A): 0.0331 µM
effect of the mutation on ligand binding (BLT2 R166^ECL2A; R166^ECL2 mutation compared to wild-type, in words): do not impact receptor ligand properties
EC50 (BLT2 R166^ECL2A; construct R166^ECL2A): 0.0207 µM
Compound: CCCCC[C@H](O)/C=C/C=C/C/C=C\CCCC(=O)O [12–HHT, 12S–hydroxyheptadeca-5Z,8E,10E-trienoic acid]
affinity for BLT2 compared to LTB4 (BLT2; in cellulo measurements): about one order of magnitude
half maximal inhibitory concentration (IC50) compared to LTB4 (BLT2; membrane fractions of CHO transfected by BLT2): about one order of magnitude lower than LTB4
effect of the mutation on ligand binding (BLT2 H177^ECL2A; H177^ECL2 to alanine compared to wild-type, in words): do not display a significant impact on ligand binding
